This experiment relates to CD8F1 mice, subcutaneous mammary adenocarcinoma, T/C%. The experiment can be described thus: NCI In Vivo Anticancer Drug Screen. Data for tumor model Mammary Adenocarcinoma CD8F1 (subcutaneous) in CD8F1. To be noted: higher = larger tumour. Summed up:
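Ratio of treated to vehicle-control outcome, based on either survival or tumor size, in mice bearing transplantable tumors given the test compound.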

The structures appear in SMILES notation. Values joined by “and” are separate entries in the source; they are usually repeats but may differ in a detail not shown here. Equal entries are not always repeated. Records with an inconclusive call do not appear.

Consider `c1cc[c]([Sn]([NH]c2ncnc3[nH]cnc23)([NH]c2ncnc3[nH]cnc23)[c]2ccccc2)cc1`, for which the T/C runs as follows: (endpoint: median tumor weight change, dose: 125.0 mg/kg/injection, schedule: Q01DX001 (ip), vehicle: suspension in saline) 101 % of control; (endpoint: median tumor weight change, dose: 250.0 mg/kg/injection, schedule: Q01DX001 (ip), vehicle: suspension in saline) 61 % of control; (endpoint: median tumor weight change, dose: 500.0 mg/kg/injection, schedule: Q01DX001 (ip), vehicle: suspension in saline) 41 % of control; (endpoint: median tumor weight change, dose: 1000.0 mg/kg/injection, schedule: Q01DX001 (ip), vehicle: suspension in saline) 42 % of control.

As for `Nc1ncnc2nc[nH]c12`, the T/C is, setting by setting: (endpoint: median tumor weight (est.), dose: 64.0 mg/kg/injection, schedule: Q07DX005 (ip), vehicle: Klucel (hydroxypropylcellulose) (HPC)) 75 % of control and 77 % of control and 78 % of control; (endpoint: median tumor weight (est.), dose: 512.0 mg/kg/injection, schedule: Q07DX005 (ip), vehicle: Klucel (hydroxypropylcellulose) (HPC)) 17 % of control and 31 % of control.

As to `Cc1cc(NCCCCCCCCNc2cc(C)nc3cc(N(C)C)ccc23)c2ccc(N(C)C)cc2n1`, the T/C (endpoint: median tumor weight change, dose: 31.0 mg/kg/injection, schedule: Q01DX001 (ip), vehicle: distilled water + Tween-80) was 35 % of control; the T/C (endpoint: median tumor weight change, dose: 62.5 mg/kg/injection, schedule: Q01DX001 (ip), vehicle: distilled water + Tween-80) was 47 % of control and 54 % of control; the T/C (endpoint: median tumor weight change, dose: 125.0 mg/kg/injection, schedule: Q01DX001 (ip), vehicle: distilled water + Tween-80 + alcohol) was 105 % of control; the T/C (endpoint: median tumor weight change, dose: 250.0 mg/kg/injection, schedule: Q01DX001 (ip), vehicle: distilled water + Tween-80 + alcohol) was 104 % of control.

In the case of `OCC1OC(n2cnc3c(Cl)ncnc32)C(O)C1O` (configuration not stated), the T/C is 90 % of control (endpoint: median tumor weight (est.), dose: 12.5 mg/kg/injection, schedule: Q07DX005 (ip), vehicle: saline); 26 % of control (endpoint: median tumor weight (est.), dose: 25.0 mg/kg/injection, schedule: Q07DX005 (ip), vehicle: saline); 28 % of control (endpoint: median tumor weight (est.), dose: 100.0 mg/kg/injection, schedule: Q07DX005 (ip), vehicle: saline); 71 % of control (endpoint: median tumor weight (est.), dose: 200.0 mg/kg/injection, schedule: Q07DX005 (ip), vehicle: saline); 115 % of control (endpoint: median tumor weight (est.), dose: 400.0 mg/kg/injection, schedule: Q07DX005 (ip), vehicle: saline).

For `CC1(C)CC23C4COC(=O)C2CCC1C3CC4=O` (configuration not stated), the T/C was 72 % of control (endpoint: median tumor weight (est.), dose: 18.0 mg/kg/injection, schedule: Q07DX005 (ip), vehicle: DMSO); 98 % of control (endpoint: median tumor weight (est.), dose: 18.0 mg/kg/injection, schedule: Q07DX005 (ip), vehicle: Klucel (hydroxypropylcellulose) (HPC)); 79 % of control (endpoint: median tumor weight (est.), dose: 36.0 mg/kg/injection, schedule: Q07DX005 (ip), vehicle: DMSO); 89 % of control (endpoint: median tumor weight (est.), dose: 36.0 mg/kg/injection, schedule: Q07DX005 (ip), vehicle: Klucel (hydroxypropylcellulose) (HPC)); 97 % of control (endpoint: median tumor weight (est.), dose: 72.0 mg/kg/injection, schedule: Q07DX005 (ip), vehicle: Klucel (hydroxypropylcellulose) (HPC)); 71 % of control (endpoint: median tumor weight (est.), dose: 144.0 mg/kg/injection, schedule: Q07DX005 (ip), vehicle: Klucel (hydroxypropylcellulose) (HPC)). The T/C by setting is: (endpoint: median tumor weight (est.), dose: 288.0 mg/kg/injection, schedule: Q07DX005 (ip), vehicle: DMSO) 87 % of control; (endpoint: median tumor weight (est.), dose: 288.0 mg/kg/injection, schedule: Q07DX005 (ip), vehicle: Klucel (hydroxypropylcellulose) (HPC)) 66 % of control.

On to `CC(=O)OC1COC(NC(=O)N(CCCl)N=O)C(OC(C)=O)C1OC(C)=O` (configuration not stated), for which the T/C was 32 % of control (endpoint: median tumor weight (est.), dose: 1.5 mg/kg/injection, schedule: Q07DX004 (ip), vehicle: saline with Tween-80); 103 % of control (endpoint: median tumor weight (est.), dose: 3.0 mg/kg/injection, schedule: Q07DX004 (ip), vehicle: saline with Tween-80); 35 % of control (endpoint: median tumor weight (est.), dose: 6.0 mg/kg/injection, schedule: Q07DX004 (ip), vehicle: saline with Tween-80); 103 % of control (endpoint: median tumor weight (est.), dose: 6.0 mg/kg/injection, schedule: Q07DX005 (ip), vehicle: saline with Tween-80); 68 % of control (endpoint: median tumor weight (est.), dose: 12.0 mg/kg/injection, schedule: Q07DX005 (ip), vehicle: saline with Tween-80); 46 % of control (endpoint: median tumor weight (est.), dose: 24.0 mg/kg/injection, schedule: Q07DX005 (ip), vehicle: saline with Tween-80).

Regarding `NC(=S)N/N=C/c1ccc(OC(=O)COc2ccccc2)cn1`, the T/C (endpoint: mean tumor weight, dose: 12.5 mg/kg/injection, schedule: Q07DX005 (ip), vehicle: saline with Tween-80) is 99 % of control; the T/C (endpoint: mean tumor weight, dose: 12.5 mg/kg/injection, schedule: Q07DX006 (ip), vehicle: saline with Tween-80) was 96 % of control; the T/C (endpoint: mean tumor weight, dose: 25.0 mg/kg/injection, schedule: Q07DX005 (ip), vehicle: saline with Tween-80) is 89 % of control; the T/C (endpoint: mean tumor weight, dose: 25.0 mg/kg/injection, schedule: Q07DX006 (ip), vehicle: saline with Tween-80) is 106 % of control; the T/C (endpoint: mean tumor weight, dose: 50.0 mg/kg/injection, schedule: Q07DX005 (ip), vehicle: saline with Tween-80) is 86 % of control; the T/C (endpoint: mean tumor weight, dose: 50.0 mg/kg/injection, schedule: Q07DX006 (ip), vehicle: saline with Tween-80) is 83 % of control. Besides, the T/C (endpoint: mean tumor weight, dose: 100.0 mg/kg/injection, schedule: Q07DX005 (ip), vehicle: saline with Tween-80) is 52 % of control; the T/C (endpoint: mean tumor weight, dose: 100.0 mg/kg/injection, schedule: Q07DX006 (ip), vehicle: saline with Tween-80) is 101 % of control; the T/C (endpoint: mean tumor weight, dose: 200.0 mg/kg/injection, schedule: Q07DX005 (ip), vehicle: saline with Tween-80) is 65 % of control; the T/C (endpoint: mean tumor weight, dose: 200.0 mg/kg/injection, schedule: Q07DX006 (ip), vehicle: saline with Tween-80) was 33 % of control.

Consider `CC(=O)OCc1cc(=O)n(C)c2c3c4c(cc12)c(C)cc(=O)n4CO3`, for which the T/C (endpoint: median tumor weight (est.), dose: 6.25 mg/kg/injection, schedule: Q07DX005 (ip), vehicle: Klucel (hydroxypropylcellulose) (HPC)) is 42 % of control; the T/C (endpoint: median tumor weight (est.), dose: 12.5 mg/kg/injection, schedule: Q07DX005 (ip), vehicle: Klucel (hydroxypropylcellulose) (HPC)) is 66 % of control and 78 % of control; the T/C (endpoint: median tumor weight (est.), dose: 100.0 mg/kg/injection, schedule: Q07DX005 (ip), vehicle: Klucel (hydroxypropylcellulose) (HPC)) was 19 % of control and 43 % of control; the T/C (endpoint: median tumor weight (est.), dose: 200.0 mg/kg/injection, schedule: Q07DX005 (ip), vehicle: Klucel (hydroxypropylcellulose) (HPC)) was 22 % of control and 26 % of control.

As to `C1CNCOC1`, the T/C was 74 % of control (endpoint: median tumor weight change, dose: 50.0 mg/kg/injection, schedule: Q01DX001 (ip), vehicle: saline); 48 % of control (endpoint: median tumor weight change, dose: 62.5 mg/kg/injection, schedule: Q01DX001 (ip), vehicle: saline); 82 % of control (endpoint: median tumor weight change, dose: 100.0 mg/kg/injection, schedule: Q01DX001 (ip), vehicle: saline); 90 % of control (endpoint: median tumor weight change, dose: 200.0 mg/kg/injection, schedule: Q01DX001 (ip), vehicle: saline); 96 % of control (endpoint: median tumor weight change, dose: 250.0 mg/kg/injection, schedule: Q01DX001 (ip), vehicle: saline).

In the case of `O=C(O)C1CC1.[Ag]`, the T/C was 63 % of control (endpoint: median tumor weight (est.), dose: 6.25 mg/kg/injection, schedule: Q07DX005 (ip), vehicle: distilled water + Tween-80) and 88 % of control (endpoint: median tumor weight (est.), dose: 12.5 mg/kg/injection, schedule: Q07DX005 (ip), vehicle: distilled water + Tween-80).

Take `CC(C)[NH-].CC(C)[NH-].O.O.[Cl][Pt+2][Cl]`: the T/C runs as follows: (endpoint: median tumor weight (est.), dose: 6.25 mg/kg/injection, schedule: Q07DX005 (ip), vehicle: dextrose) 121 % of control; (endpoint: median tumor weight (est.), dose: 12.5 mg/kg/injection, schedule: Q07DX005 (ip), vehicle: dextrose) 121 % of control; (endpoint: median tumor weight (est.), dose: 25.0 mg/kg/injection, schedule: Q07DX005 (ip), vehicle: dextrose) 110 % of control; (endpoint: median tumor weight (est.), dose: 50.0 mg/kg/injection, schedule: Q07DX005 (ip), vehicle: dextrose) 8 % of control.

In the case of `CCCCCc1cc(/C=C2/N=C(c3ccc[nH]3)C=C2OC)[nH]c1C`, the T/C (endpoint: median tumor weight (est.), dose: 0.5 mg/kg/injection, schedule: Q07DX005 (ip), vehicle: suspension in saline) was 169 % of control; the T/C (endpoint: median tumor weight (est.), dose: 1.0 mg/kg/injection, schedule: Q07DX005 (ip), vehicle: suspension in saline) was 85 % of control; the T/C (endpoint: median tumor weight (est.), dose: 4.0 mg/kg/injection, schedule: Q07DX005 (ip), vehicle: suspension in saline) was 82 % of control; the T/C (endpoint: median tumor weight (est.), dose: 8.0 mg/kg/injection, schedule: Q07DX005 (ip), vehicle: suspension in saline) was 95 % of control.

Regarding `O=C1CN(CCN2CC(=O)N(CN3CCOCC3)C(=O)C2)CC(=O)N1CN1CCOCC1`, the T/C was 53 % of control (endpoint: median tumor weight change, dose: 15.62 mg/kg/injection, schedule: Q01DX001 (ip), vehicle: water); 64 % of control (endpoint: median tumor weight change, dose: 31.25 mg/kg/injection, schedule: Q01DX001 (ip), vehicle: water); 96 % of control (endpoint: median tumor weight change, dose: 62.5 mg/kg/injection, schedule: Q01DX001 (ip), vehicle: water); 40 % of control (endpoint: median tumor weight change, dose: 125.0 mg/kg/injection, schedule: Q01DX001 (ip), vehicle: water).

The record behind these values is PubChem BioAssay AID220 (DTP/NCI, 2004).
